This passage reports TGI and GI50 results from PubChem BioAssay (NCI).

Among the test systems are BT-549 breast; MDA-MB-435; MDA-N; DMS 114 small cell lung; LXFL 529 NSCLC; KM20L2 colon; XF 498 CNS; DLD-1 colon.
What all share (test): NCI tumour cell line growth inhibition, 48 h

Where “and” joins values, the source holds several entries; their conditions need not be identical. Identical values can stand only once.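 48-hour exposure; five concentrations; linearly interpolated endpoints. Abbreviation: GI50, concentration required for 50% inhibition of growth. The concentration for full growth arrest is given as TGI.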 A value given as a limit tells only on which side of the number the result lay.

As for `COc1ccc(C(=O)Nc2ccc(O)c(=O)cc2)cc1`, the TGI with BT-549 breast and in the assay on MDA-MB-435 was above 100 µM in each case.

For the compound `COc1cc(C(=O)N2CCN(C(=O)c3cc(OC)c(OC)c(OC)c3)C2=S)cc(OC)c1OC`, the GI50 in the assay with BT-549 breast is 17.4 µM; in the assay with MDA-N, 15 µM; in the assay on MDA-MB-435, 13.1 µM. Also, the TGI in the assay with BT-549 breast was 34.1 µM; with MDA-N, 33.9 µM; in the assay on MDA-MB-435, 28.8 µM.

For the compound `Cc1cc(N[C@@H]2CCC[C@H](Nc3ccnc4cc(Cl)ccc34)C2)nc(N2CCCCCC2)n1`, in the assay with BT-549 breast, the GI50 is 1.75 µM and the TGI came to 3.75 µM. Moreover, in the assay with MDA-MB-435, the GI50 was 1.79 µM and the TGI was 3.33 µM.

As for `O=c1c(F)cn(Cc2ccc(C34CC5CC(CC(C5)C3)C4)c(O)c2)c(=O)n1Cc1ccc(C23CC4CC(CC(C4)C2)C3)c(O)c1`, the GI50 is 13.1 µM in the assay on BT-549 breast and 14.4 µM with MDA-MB-435. Further, the TGI with BT-549 breast worked out at 31.3 µM; in the assay with MDA-MB-435, 29.2 µM.

Consider `Cc1nc(Nc2cccnc2)sc1C(=O)/C=C/c1ccc(F)cc1`, for which, in the assay on BT-549 breast, the GI50 is 2.83 µM and the TGI was found to be 8.87 µM. Also, in the assay with MDA-MB-435, the GI50 is 2.71 µM and the TGI amounted to 11.2 µM.

In the case of `C[C@@H]1C[C@@H]([C@@H](CC2CC(=O)NC(=O)C2)OC(=O)CC(=O)c2ccccc2)C(=O)[C@@H](C)C1`, in the assay on BT-549 breast, the GI50 is 2.32 µM and the TGI came out at 66.7 µM. In addition, in the assay with MDA-MB-435, the GI50 is 0.463 µM and the TGI is above 32.6 µM.

Consider `O=C(/C=C/c1ccc[nH]1)c1ccc(-n2ccc(C(F)(F)F)n2)cc1`, for which the GI50 is 0.425 µM with BT-549 breast and above 100 µM in the assay with MDA-MB-435. Moreover, the values for the TGI with BT-549 breast and with MDA-MB-435 were 2.5 µM and above 100 µM, respectively.

With `COc1cc(OC)c2c(=O)cc(-c3ccc(OC)c(OC)c3OC)oc2c1`, the TGI in the assay with DMS 114 small cell lung, with LXFL 529 NSCLC, with KM20L2 colon, in the assay on XF 498 CNS and in the assay with DLD-1 colon was above 100 µM throughout.

With `C=CCCCCC1CCC2CCC(CCCCC=C)N12` (stereo not drawn), the TGI with DMS 114 small cell lung came out at 31.3 µM; with LXFL 529 NSCLC it was 26.9 µM; in the assay on KM20L2 colon, 25.7 µM.

`NC(N)=N/N=C/c1c(Cl)cccc1Cl`: in the assay with BT-549 breast, the GI50 was 16 µM and the TGI came to 44.9 µM. Besides, in the assay with MDA-MB-435, the GI50 is 15.3 µM and the TGI amounted to 31.1 µM.

As for `CCOC(=O)Nc1cc2c(c(N)n1)N=C(c1ccccc1)CO2`, the GI50 with BT-549 breast is 23.1 µM; with MDA-MB-435 it was 0.0169 µM. Moreover, the TGI was above 100 µM with BT-549 breast and 0.0399 µM in the assay with MDA-MB-435.

Take `COC(=O)[C@]12CC[C@@H](C)[C@H](C)[C@@H]1C1=CC[C@@H]3[C@@]4(C)C[C@@H](O)[C@H](O)[C@@](C)(CO)C4=CC[C@@]3(C)[C@]1(C)CC2`: in the assay on BT-549 breast, the GI50 was 16.2 µM and the TGI was determined as 31.7 µM. For the same compound, in the assay with MDA-MB-435, the GI50 was 15.4 µM and the TGI was 30.3 µM.

As to `CCOC(=O)N[C@H]1CCc2cc(OC)c(OC)c(OC)c2-c2ccc(SC)c(=O)cc21`, the TGI with DMS 114 small cell lung was below 0.0117 µM; in the assay with KM20L2 colon it was below 0.01 µM; in the assay on BT-549 breast it was 33.2 µM and > 32.5 µM; in the assay on XF 498 CNS it was 29.8 µM; with DLD-1 colon, above 100 µM; with MDA-N, above 100 µM.

On to `CC12CCC(=O)C[C@H]1CCC(OC=O)C2Br` (stereo partly drawn), for which the TGI with DMS 114 small cell lung, in the assay with LXFL 529 NSCLC, with KM20L2 colon, in the assay with XF 498 CNS and in the assay with DLD-1 colon was above 100 µM in each case.

For the compound `Clc1cc2c(c(CSc3nc4ccccc4n4cccc34)c1)OCOC2`, the figures for the GI50 in the assay with BT-549 breast and in the assay with MDA-MB-435 were 78.1 µM and above 100 µM, respectively. Moreover, the TGI in the assay on BT-549 breast and in the assay on MDA-MB-435 was above 100 µM in each case.

For the compound `COc1c(O)c2c(=O)cc3c4c5c(cc(=O)c6c(O)c(OC)c(CC(C)O)c(c(c1CC(C)O)c24)c65)OCO3` (stereo not drawn), the TGI in the assay on LXFL 529 NSCLC was 11.4 µM; in the assay on KM20L2 colon, 1.69 µM; in the assay on DLD-1 colon it was 8.39 µM.

For `O=C(Nc1cccc(C(F)(F)F)c1)c1ccc(NC2=C(Cl)C(=O)N(Cc3ccc(Cl)cc3Cl)C2=O)cc1`, the GI50 in the assay with BT-549 breast is 2.2 µM; in the assay on MDA-MB-435, 16.1 µM. The TGI in the assay on BT-549 breast amounted to 5.71 µM; with MDA-MB-435, 32.4 µM.

With `CN(C)CCC(/C=C/c1ccccc1)=N\Nc1ccccc1`, the TGI came to 17.3 µM in the assay on DMS 114 small cell lung, 0.462 µM in the assay on LXFL 529 NSCLC, 0.655 µM with KM20L2 colon and 12.5 µM in the assay on DLD-1 colon.

On to `O=C(/C(=C/c1ccc(Cl)cc1)c1ccccc1)c1ccccc1`, for which the TGI amounted to 37.2 µM in the assay on DMS 114 small cell lung, 33.7 µM with LXFL 529 NSCLC, 34.5 µM with XF 498 CNS and 31.8 µM in the assay on DLD-1 colon.

Regarding `CNCCOC(=O)/C=C1\CC[C@H]2[C@@H]([C@@H](O)C(=O)[C@@H]3[C@]2(C)CC[C@H](O)[C@]3(C)C(=O)OC)[C@H]1C`, in the assay on BT-549 breast, the GI50 was 0.286 µM and the TGI was determined as 1.09 µM. In the assay on MDA-MB-435, the GI50 was 0.368 µM and the TGI worked out at 1.45 µM.

On to `NNC(=O)CNc1cccc(Br)c1`, for which the TGI in the assay with BT-549 breast, in the assay with MDA-N and in the assay with MDA-MB-435 was above 100 µM in each case.

In the case of `Cc1nc(N)sc1N=Nc1ccccc1Br`, the TGI in the assay on BT-549 breast stood at 46.4 µM; in the assay on MDA-N, 64.7 µM; with MDA-MB-435, 47.9 µM.

As for `CN(C)C1CCN(C(=O)c2ccc(NC(=O)Nc3ccc(-c4nc(N5CCOCC5)c5cccn5n4)cc3)cc2)CC1`, in the assay on BT-549 breast, the GI50 was 0.177 µM and the TGI turned out to be 2.25 µM. Further, in the assay with MDA-MB-435, the GI50 was 0.0403 µM and the TGI came out at 0.492 µM.

Regarding `CCCCCCCCCCCCCCCC(=O)OCCOCCOCCOCc1ccccc1`, the TGI in the assay on XF 498 CNS and in the assay with DLD-1 colon was above 100 µM each time.

Consider `CN(C)CC[C@H](CSc1ccccc1)Nc1ccc(S(=O)(=O)NC(=O)c2ccc(N3CCN(Cc4ccccc4-c4ccc(Cl)cc4)CC3)cc2)cc1[N+](=O)[O-]`, for which, in the assay on BT-549 breast, the GI50 was 17.3 µM and the TGI is above 100 µM. Moreover, in the assay on MDA-MB-435, the GI50 was 2.47 µM and the TGI is above 34.6 µM.
